We go through one molecule from ChEMBL document CHEMBL1158736, “Cremastrine, a pyrrolizidine alkaloid from Cremastra appendiculata” (J Nat Prod, 2005).

Assay [1] has as its target T1, Muscarinic acetylcholine receptor M5 (Homo sapiens, UniProt P08912).
T1 sequence (P08912 whole entry): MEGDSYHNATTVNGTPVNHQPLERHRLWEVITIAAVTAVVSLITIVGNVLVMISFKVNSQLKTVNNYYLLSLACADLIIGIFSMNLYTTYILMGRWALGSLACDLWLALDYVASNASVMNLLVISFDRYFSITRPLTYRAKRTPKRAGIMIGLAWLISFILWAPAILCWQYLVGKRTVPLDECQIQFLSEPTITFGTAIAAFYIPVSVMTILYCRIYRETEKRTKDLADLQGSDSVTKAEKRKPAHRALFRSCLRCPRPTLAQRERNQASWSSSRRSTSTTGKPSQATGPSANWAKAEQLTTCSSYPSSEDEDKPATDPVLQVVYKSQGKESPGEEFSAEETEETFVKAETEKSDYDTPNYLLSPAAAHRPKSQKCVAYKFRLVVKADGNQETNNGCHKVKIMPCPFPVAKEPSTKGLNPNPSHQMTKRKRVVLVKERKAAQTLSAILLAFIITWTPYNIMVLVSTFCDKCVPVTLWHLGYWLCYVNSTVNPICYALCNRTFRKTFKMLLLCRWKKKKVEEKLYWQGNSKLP
Briefly: Displacement of [3H]NMS from human cloned muscarinic M5 receptor expressed in insect Sf9 cells.

In assay [2] the target is Muscarinic acetylcholine receptor M3 (Homo sapiens, UniProt P20309). The assay can be described thus: Displacement of [3H]NMS from human cloned muscarinic M3 receptor expressed in insect Sf9 cells.
Muscarinic acetylcholine receptor M3, sequence (P20309 whole entry): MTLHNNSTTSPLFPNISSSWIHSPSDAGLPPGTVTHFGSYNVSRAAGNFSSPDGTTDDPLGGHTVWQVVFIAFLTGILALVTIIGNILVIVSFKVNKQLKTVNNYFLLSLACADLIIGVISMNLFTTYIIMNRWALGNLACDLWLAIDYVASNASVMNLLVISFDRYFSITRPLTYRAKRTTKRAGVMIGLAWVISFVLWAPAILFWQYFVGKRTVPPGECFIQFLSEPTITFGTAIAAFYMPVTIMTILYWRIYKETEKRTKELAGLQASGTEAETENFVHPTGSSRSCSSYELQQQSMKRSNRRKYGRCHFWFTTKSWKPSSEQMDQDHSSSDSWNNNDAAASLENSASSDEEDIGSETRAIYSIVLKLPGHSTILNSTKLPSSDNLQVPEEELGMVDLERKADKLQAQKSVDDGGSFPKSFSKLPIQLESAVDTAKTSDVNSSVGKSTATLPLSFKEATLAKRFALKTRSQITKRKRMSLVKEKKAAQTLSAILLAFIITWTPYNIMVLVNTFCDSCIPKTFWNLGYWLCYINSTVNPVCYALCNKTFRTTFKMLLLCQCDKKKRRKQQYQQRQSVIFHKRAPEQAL
Assay [3] deals with T2, Muscarinic acetylcholine receptor M4 (Homo sapiens, UniProt P08173).
T2 sequence (P08173 whole entry): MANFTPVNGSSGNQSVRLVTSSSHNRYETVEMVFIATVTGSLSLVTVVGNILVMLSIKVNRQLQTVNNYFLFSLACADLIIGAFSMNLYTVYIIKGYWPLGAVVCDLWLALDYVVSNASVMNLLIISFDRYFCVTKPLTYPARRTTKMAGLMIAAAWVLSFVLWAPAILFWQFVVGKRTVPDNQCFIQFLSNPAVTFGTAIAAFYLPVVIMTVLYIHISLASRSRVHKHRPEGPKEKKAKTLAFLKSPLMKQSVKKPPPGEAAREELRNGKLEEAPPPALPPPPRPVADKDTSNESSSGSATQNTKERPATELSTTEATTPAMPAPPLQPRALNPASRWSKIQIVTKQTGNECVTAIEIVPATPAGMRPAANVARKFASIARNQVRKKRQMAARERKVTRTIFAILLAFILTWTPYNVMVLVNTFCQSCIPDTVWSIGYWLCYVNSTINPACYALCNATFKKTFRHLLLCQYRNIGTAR
Briefly: Displacement of [3H]NMS from human cloned muscarinic M4 receptor expressed in insect Sf9 cells.

The target in assay [4] is T3, Muscarinic acetylcholine receptor M1 (Homo sapiens, UniProt P11229).
T3 sequence (P11229 whole entry): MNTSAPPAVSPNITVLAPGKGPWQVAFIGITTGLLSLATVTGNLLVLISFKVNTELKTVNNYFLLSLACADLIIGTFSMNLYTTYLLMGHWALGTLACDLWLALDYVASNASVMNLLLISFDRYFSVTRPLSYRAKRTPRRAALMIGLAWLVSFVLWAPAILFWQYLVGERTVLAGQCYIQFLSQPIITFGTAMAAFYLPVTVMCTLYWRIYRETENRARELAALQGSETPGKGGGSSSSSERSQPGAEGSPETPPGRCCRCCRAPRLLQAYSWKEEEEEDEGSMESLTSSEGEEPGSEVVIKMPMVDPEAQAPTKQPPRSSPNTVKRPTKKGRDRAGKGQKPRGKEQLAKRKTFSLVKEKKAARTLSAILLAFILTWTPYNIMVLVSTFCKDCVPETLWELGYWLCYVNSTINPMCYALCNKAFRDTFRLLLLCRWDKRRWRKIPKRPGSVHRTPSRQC
Briefly: Displacement of [3H]NMS from human cloned muscarinic M1 receptor expressed in insect Sf9 cells.

The target in assay [5] is T4, Muscarinic acetylcholine receptor M2 (Homo sapiens, UniProt P08172).
T4 sequence (P08172 whole entry): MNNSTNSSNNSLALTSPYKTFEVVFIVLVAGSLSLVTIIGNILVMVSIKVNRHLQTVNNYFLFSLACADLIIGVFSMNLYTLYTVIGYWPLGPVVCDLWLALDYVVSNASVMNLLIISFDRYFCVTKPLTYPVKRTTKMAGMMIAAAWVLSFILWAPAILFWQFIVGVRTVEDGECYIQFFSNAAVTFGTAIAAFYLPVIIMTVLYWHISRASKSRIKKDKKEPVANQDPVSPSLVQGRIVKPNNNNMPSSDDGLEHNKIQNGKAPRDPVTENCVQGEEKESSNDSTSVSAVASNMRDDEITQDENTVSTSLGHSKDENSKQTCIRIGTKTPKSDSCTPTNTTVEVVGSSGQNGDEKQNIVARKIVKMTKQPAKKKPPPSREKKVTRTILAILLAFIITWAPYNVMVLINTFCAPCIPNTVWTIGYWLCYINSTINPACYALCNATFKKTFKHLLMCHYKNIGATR
Briefly: Displacement of [3H]NMS from human cloned muscarinic M2 receptor expressed in insect Sf9 cells.

As to `CC[C@@H](C)[C@@H](O)C(=O)OC[C@H]1CCN2CCC[C@@H]12` [CREMASTRINE], the IC50 in assay [1] was 1220 nM; in assay [2], 126 nM; in assay [3] it was 498 nM; in assay [4], 505 nM; in assay [5] it was over 5520 nM.
